# According to patent US7851467B2, “Carbamate compounds as 5-HT4 receptor agonists” (Theravance, Inc., priority 2005, dated 2010):
# What was measured:
# [1] = system: Caco-2 (colon, adenocarcinoma; human) cell monolayer; assay: Caco-2 permeation assay (in vitro model of oral bioavailability); assay type: in vitro ADME; settings: 100 μM test compound, 37° C., 60 min
# Method: Assay 5: In Vitro Model of Oral Bioavailability: Caco-2 Permeation Assay
# The Caco-2 permeation assay was performed to model the ability of test compounds to pass through the intestine and get into the blood stream after oral administration. The rate at which test compounds in solution permeate a cell monolayer designed to mimic the tight junction of human small intestinal monolayers was determined.
# Caco-2 (colon, adenocarcinoma; human) cells were obtained from ATCC (American Type Culture Collection; Rockville, Md.). For the permeation study, cells were seeded at a density of 63,000 cells/cm^2 on pre-wetted transwells polycarbonate filters (Costar; Cambridge, Mass.). A cell monolayer was formed after 21 days in culture. Following cell culture in the transwell plate, the membrane containing the cell monolayer was detached from the transwell plate and inserted into the diffusion chamber (Costar; Cambridge, Mass.). The diffusion chamber was inserted into the heating block which was equipped with circulating external, thermostatically regulated 37° C. water for temperature control. […]
# The permeation study was performed with test compound concentrations at 100 μM and with ^14C-mannitol to monitor the integrity of the monolayer. […] Samples were analyzed by HPLC or liquid scintillation counting for test compound and mannitol concentrations. The permeation coefficient (Kp) in cm/sec was calculated. […]
# [2] = target: T1, hERG cardiac potassium channel (Homo sapiens, UniProt Q12809); assay: In vitro voltage clamp assay of inhibition of potassium ion current in whole cells expressing hERG; assay type: cell-based; settings: CHO-K1 cells stably transfected with hERG, pH 7.4, five-minute exposure
# T1 construct: host or cells: CHO-K1
# Method: Assay 4: In Vitro Voltage Clamp Assay of Inhibition of Potassium Ion Current in Whole Cells Expressing the hERG Cardiac Potassium Channel
# CHO-K1 cells stably transfected with hERG cDNA were obtained from Gail Robertson at the University of Wisconsin. Cells were held in cryogenic storage until needed. Cells were expanded and passaged in Dulbecco's Modified Eagles Medium/F12 supplemented with 10% fetal bovine serum and 200 μg/mL geneticin. Cells were seeded onto poly-D-lysine (100 μg/mL) coated glass coverslips, in 35 mm^2 dishes (containing 2 mL medium) at a density that enabled isolated cells to be selected for whole cell voltage-clamp studies. The dishes were maintained in a humidified, 5% CO2 environment at 37° C.
# Extracellular solution was prepared at least every 7 days and stored at 4° C. when not in use. […]
# The coverslips on which the cells were seeded were transferred to a recording chamber and perfused continuously. […] Peak current amplitudes during the repolarization phase were determined using pClamp software. […]
# Peak current amplitudes during the repolarization phase were determined using pCLAMP software. […] The normalized current means and standard errors for each condition were calculated and plotted versus the time course of the experiment. […]
# T1 sequence (Q12809 whole entry): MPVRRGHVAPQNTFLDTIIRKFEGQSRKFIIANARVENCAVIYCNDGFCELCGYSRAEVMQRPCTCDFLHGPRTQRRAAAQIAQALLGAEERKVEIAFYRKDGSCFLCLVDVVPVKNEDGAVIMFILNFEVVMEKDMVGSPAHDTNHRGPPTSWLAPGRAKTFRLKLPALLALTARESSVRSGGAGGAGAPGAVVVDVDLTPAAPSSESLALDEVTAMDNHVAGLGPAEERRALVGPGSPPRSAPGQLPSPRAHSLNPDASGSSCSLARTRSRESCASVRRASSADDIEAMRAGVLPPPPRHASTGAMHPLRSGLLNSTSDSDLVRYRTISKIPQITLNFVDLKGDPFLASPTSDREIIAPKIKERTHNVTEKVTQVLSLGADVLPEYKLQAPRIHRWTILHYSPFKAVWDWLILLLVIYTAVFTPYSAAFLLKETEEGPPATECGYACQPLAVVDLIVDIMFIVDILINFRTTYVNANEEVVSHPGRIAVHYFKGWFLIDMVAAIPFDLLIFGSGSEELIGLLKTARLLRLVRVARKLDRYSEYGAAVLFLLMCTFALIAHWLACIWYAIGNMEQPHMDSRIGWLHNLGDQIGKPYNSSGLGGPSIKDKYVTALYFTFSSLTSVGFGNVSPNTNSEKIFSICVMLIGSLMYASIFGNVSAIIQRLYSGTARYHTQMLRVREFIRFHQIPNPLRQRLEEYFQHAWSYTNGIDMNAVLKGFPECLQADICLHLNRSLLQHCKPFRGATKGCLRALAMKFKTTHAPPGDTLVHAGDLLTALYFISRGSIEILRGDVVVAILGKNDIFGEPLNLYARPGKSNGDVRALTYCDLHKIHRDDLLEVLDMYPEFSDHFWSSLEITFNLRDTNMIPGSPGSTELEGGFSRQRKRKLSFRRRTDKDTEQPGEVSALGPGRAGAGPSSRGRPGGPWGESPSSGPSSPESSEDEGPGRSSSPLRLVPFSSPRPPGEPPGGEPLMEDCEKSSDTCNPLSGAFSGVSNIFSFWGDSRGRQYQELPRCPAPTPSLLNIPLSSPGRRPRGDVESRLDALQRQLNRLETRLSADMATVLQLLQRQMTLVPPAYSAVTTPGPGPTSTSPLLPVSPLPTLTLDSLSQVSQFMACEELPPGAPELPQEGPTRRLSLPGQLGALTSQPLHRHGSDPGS
smiles,measurement,setting,value
"CC(C)n1c(=O)n(C(=O)N[C@H]2C[C@H]3CC[C@@H](C2)N3CCCOC(=O)N2CCN(C(=O)C3CCCO3)CC2)c2ccccc21 (stereo partly drawn) [Example 1, 4-(tetrahydrofuran-2-carbonyl)piperazine-1-carboxylic acid 3-{(1S,3R,5R)-3-[(3-isopropyl-2-oxo-2,3-dihydrobenzoimidazole-1-carbonyl)amino]-8-aza-bicyclo[3.2.1]oct-8-yl}propyl ester]",Kp value (permeation coefficient),[1],60 ×10⁻⁶ cm/s
same,"inhibition at 5 min, 3 µM",[2],~9%
